We go through 1 compound from US20170216328A1, “METHODS AND COMPOSITIONS FOR MICROBIOME ALTERATION” (Ritter Pharmaceuticals, Inc., priority 2014, published 2017).

In this test the test system is Bifidobacterium species and strains. The experiment in a line: Comparative growth of Bifidobacterium species and strains in scratch MRS with 2% carbohydrate. The format is cell-based. On the procedure: The objective of the study was to determine the ability of various Bifidobacterium species and strains to grow on galactooligosaccharides
The growth of Lactobacillus and Bifidobacterium strains was evaluated in scratch MRS (Table 16) supplemented with 2% of a carbohydrate solution. The carbohydrates used in the experiments were: Glucose—Fisher; Lactose—Fisher; GOS1-95% GOS purity from Inalco SPA—Provided by Ritter Pharmaceuticals; GOS2-90% GOS purity from GTC—provided by Ritter Pharmaceuticals.
Carbohydrate stock solutions were filter sterilized and then added to either a scratch MRS formulation (Table 16), or a semisynthetic medium (Table 17).
Lactobacillus and Bifidobacterium cultures were propagated in MRS broth overnight, and then transferred once through the test medium. For growth experiments, cultures were inoculated into the MRS scratch medium containing one of the 4 carbohydrates to be examined. Growth was monitored either: **automatically, using a FLUOStar OPTIMA microtiter plate reader to monitor the change in absorbance (A600) as a function of the time. The strains were incubated at 37 C aerobically for these experiments; or ** manually, using a standard spectrophotometer to monitor the change in OD600 nm over time, in 5 ml liquid culture tubes. These cultures were incubated anaerobically at 37° C. in a COY anaerobic chamber, flushed with anaerobic gas. […]

`OC[C@H]1O[C@@H](O[C@H]2[C@H](O)[C@@H](O)C(O)O[C@@H]2CO)[C@H](O)[C@@H](O)[C@H]1O` (stereo partly shown) [lactose]: the “Growth of Bifidobacterium strains on lactose” value was “none of the Bifidobacterium strains used in these experiments grew on lactose, except for B. pseudolongum”.
